≈ marks a conversion by molar mass, not a printed value.
Tests used:
[1] = In vitro haemolytic activity; assay type: cell-based; details: male, 4% (v/v) fresh human erythrocyte suspension, 4% human erythrocytes, read-out: Haemolysis (%)
Protocol: Then, 4% (v/v) of fresh human erythrocyte solution (hErc) was prepared using a PBS pH 7.0 solution. A series of diluted compounds from 200 to 50 µg/ml were prepared in a total volume of 1 ml with hErc solution. […] Absorbance of the supernatant (200 µl) was recorded at 540 nm using an iEMS microplate reader. The 0.1% (v/v) solution of Triton X100 served as a positive control (as total lysis of hErc), and intact hErc served as a negative control. […] All tests were performed in triplicate and the results were expressed as haemolysis percentage (mean ± SD). Percentage of haemolysis was calculated using the following equation: haemolysis %=Asample-Anc/Apc-Anc×100 where Asample was absorbance of the tested compound, Anc was absorbance of the negative control (intact hErc) and Apc was absorbance of the positive control treated with 0.1% TritonX100. In statistical calculations, p values below 0.05 were considered significant throughout the test. For comparison of mean values, one-way ANOVA with Dunnet’s post-test was used.

[2] = test system: Staphylococcus aureus ATCC 25923; assay: MIC determination (broth micro-dilution); assay type: cell-based; details: ATCC25923
Protocol: (§1) Before analysis, compounds 5a–f were dissolved in 96% ethanol in a concentration of 2 mg/ml as stock solutions. Inoculums were prepared with fresh cultures of microbial strains, cultured on tryptic-soy agar or Sabouraud 2% (m/v) dextrose agar for 18 h (48–72 h for fungi) at 30 °C with physiological saline containing approximately […]. Inoculum density (0.5 McFarland units) was adjusted with a bio Mériex (France) densitometer. Minimum inhibitory concentration (MIC) was determined by the twofold micro-dilution method in Mu¨ller–Hinton broth for bacterial strains and RPMI 1640 + 2% m/v dextrose for fungi according to the EUCAST recommendations in a sterile 96-well flat-bottom plastic tissue culture plate. MIC was determined using a linear regression curve after incubation of compounds and reading the optical density at 570 nm using an iEMS microplate reader. […] All tests were performed in triplicate and expressed as the mean.

[3] = test system: Candida albicans ATCC 90028; assay: MIC determination (broth micro-dilution); assay type: cell-based; details: ATCC90028
Protocol: as §1

Candida kefyr ATCC 2512 = assay: MIC determination (broth micro-dilution); assay type: cell-based; details: Kluyveromyces marxianus, ATCC2512
Protocol: as §1

[4] = test system: Burkholderia caepacia ATCC 25416; assay: MIC determination (broth micro-dilution); assay type: cell-based; details: ATCC25416
Protocol: as §1

[5] = test system: Candida parapsylosis ATCC 22019; assay: MIC determination (broth micro-dilution); assay type: cell-based; details: ATCC22019
Protocol: as §1

[6] = test system: Enterococcus hyrae ATCC 8043; assay: MIC determination (broth micro-dilution); assay type: cell-based; details: ATCC8043
Protocol: as §1

[7] = test system: Enterococcus faecalis ATCC 29212; assay: MIC determination (broth micro-dilution); assay type: cell-based; details: ATCC29212
Protocol: as §1

[8] = test system: Escherichia coli ATCC 8739; assay: MIC determination (broth micro-dilution); assay type: cell-based; details: ATCC8739
Protocol: as §1

[9] = test system: Staphylococcus aureus ATCC 6538; assay: MIC determination (broth micro-dilution); assay type: cell-based; details: ATCC6538
Protocol: as §1

[10] = test system: Candida krusei ATCC 14243; assay: MIC determination (broth micro-dilution); assay type: cell-based; details: Pichia kudriavzevii, ATCC14243
Protocol: as §1

[11] = test system: Escherichia coli ATCC 10536; assay: MIC determination (broth micro-dilution); assay type: cell-based; details: ATCC10536
Protocol: as §1

[12] = test system: Candida tropicalis ATCC 750; assay: MIC determination (broth micro-dilution); assay type: cell-based; details: ATCC750
Protocol: as §1

[13] = test system: Pseudomonas aeruginosa ATCC 9027; assay: MIC determination (broth micro-dilution); assay type: cell-based; details: ATCC9027
Protocol: as §1

[14] = test system: Candida albicans ATCC 10231; assay: MIC determination (broth micro-dilution); assay type: cell-based; details: ATCC10231
Protocol: as §1

[15] = test system: Bacillus subtilis ATCC 6633; assay: MIC determination (broth micro-dilution); assay type: cell-based; details: ATCC6633
Protocol: as §1

[16] = test system: Kocuria rhizophila ATCC 9341; assay: MIC determination (broth micro-dilution); assay type: cell-based; details: ATCC9341
Protocol: as §1

[17] = test system: Staphylococcus aureus ATCC 25213; assay: MIC determination (broth micro-dilution); assay type: cell-based; details: ATCC25213
Protocol: as §1

[18] = test system: Aspergillus niger ATCC 16404; assay: MIC determination (broth micro-dilution); assay type: cell-based; details: ATCC16404
Protocol: as §1

[19] = test system: Pseudomonas aeruginosa ATCC 27853; assay: MIC determination (broth micro-dilution); assay type: cell-based; details: ATCC27853
Protocol: as §1

[20] = test system: Issatchenkia orientalis Kudrjanzev ATCC 6258; assay: MIC determination (broth micro-dilution); assay type: cell-based; details: Pichia kudriavzevii, ATCC6258
Protocol: as §1

[21] = test system: Bacillus cereus ATCC 11778; assay: MIC determination (broth micro-dilution); assay type: cell-based; details: ATCC11778
Protocol: as §1

E. coli = assay: MIC determination, E. coli as summarised in text; assay type: cell-based; details: Escherichia coli, both strains
Protocol: as §1

[22] = Inhibition of linoleic acid peroxidation (LP), AAPH-initiated; parameters: tested at 100 µM; details: 100 μΜ, 37 °C
Protocol: To initiate lipid peroxidation, the free radical AAPH was used[10]. The final solution in the UV cuvette consisted of 10 µl sodium linoleate solution (c = 16 mM) and 0.93 ml phosphate buffer pH 7.4 (c = 50 mM). Afterwards, 10 µl of the tested compound solution in DMSO (final concentration 0.1 mM) and 50 µl of AAPH solution (c = 40 mM) were added. The experiment was performed at 37 °C under air. Oxidation of linoleic acid sodium salt was monitored at 234 nm. The assay was repeated at least in triplicate and the standard deviation of absorbance was less than 10% of the mean. Trolox was used under the same experimental conditions as a reference compound.

Compound `COc1cc(NC(C)CCCNC(=O)NC(C(=O)NC(c2ccccc2)c2ccc(Cl)cc2)c2ccc(Cl)cc2)c2ncccc2c1` (stereo not drawn) [Compound 5e, 2–(4-chlorophenyl)-N-[(4-chlorophenyl)(phenyl)methyl]-2-[({4-[(6-methoxyquinolin-8-yl)amino]pentyl}carbamoyl)amino]acetamide] has a hemolysis at 1 h, 50 µg/ml ([1]; pH 7, 50 μg/ml) of 2.78 ± 0.04%, a hemolysis at 1 h, 100 µg/ml ([1]; pH 7, 100 μg/ml) of 3.23 ± 0.05% and a hemolysis at 1 h, 200 µg/ml ([1]; pH 7, 200 μg/ml) of 3.7 ± 0.08%. The MIC [2] was over 100 µg/mL, the MIC [3] was over 100 µg/mL and the MIC (Candida kefyr ATCC 2512) was over 100 µg/mL. The MIC [4] was over 100 µg/mL, the MIC [5] was over 100 µg/mL and the MIC [6] was over 100 µg/mL. It also gave an MIC [7] of over 100 µg/mL, an MIC [8] of 60 µg/mL (≈ 89.5 µM) and an MIC [9] of over 100 µg/mL. The MIC [10] was over 100 µg/mL, the MIC [11] was 45 µg/mL (≈ 67.1 µM) and the MIC [12] was over 100 µg/mL. For the same compound, the MIC [13] was over 100 µg/mL, the MIC [14] was over 100 µg/mL and the MIC [15] was over 100 µg/mL. For the same compound, the MIC [16] was over 100 µg/mL, the MIC [17] was over 100 µg/mL and the MIC [18] was over 100 µg/mL. The MIC [19] was over 100 µg/mL, the MIC [20] was over 100 µg/mL and the MIC [21] was over 100 µg/mL. For the same compound, the MIC (E. coli) was 45 to 60 µg/mL (≈ 67.1 to 89.5 µM), the “LP inhibition (%) ± SD” value [22] was 80 ± 2.7% and the melting point was 150 to 151.5 °C.

— publication PMC6021035, “Insights into biological activity of ureidoamides with primaquine and amino acid moieties” (Journal of Enzyme Inhibition and Medicinal Chemistry, 2018)
